Three molecules from patent publication US20230143604A1, “QW DOSING OF GIP RECEPTOR AGONIST PEPTIDE COMPOUNDS AND USES THEREOF” (TAKEDA PHARMACEUTICAL COMPANY LIMITED, priority 2020, published 2023) can be followed below.

The series in a line: physchem. As for the experimental part: Solubility of the GIPR peptides may be determined by dissolution in a phosphate buffer followed by quantitation using liquid chromatography, for example, High Performance Liquid Chromatogry (HPLC). An illustrative method is provided. For determination of the solubility of the GIPr agonist peptides, 3 mg of peptides are weighted out in a small glass vial. 100 μL of 200 mM Phosphate buffer pH 7.4 are added and the vial is sonicated/votexed as necessary for a maximum of 1 min. […] If insoluble material is observed in the tube the addition of 100 μL of buffer and mixing is repeated until complete dissolution.
3 mg of peptides are weighted out in a small glass vial. 100 uL of 200 mM Phosphate buffer pH 7.4 are added and the vial is sonicated/votexed as necessary for a maximum of 1 min. […] If insoluble material is observed in the tube the addition of 100 uL of buffer and mixing is repeated until complete dissolution.

Structures are written as SMILES. Starred links: 1 amine or outer side, 2 acyl side, 3 side chain; linkers in the order of their positions; H or OH if unused. Non-standard residues stand in square brackets, D forms with d. Residues, ends and D or L forms follow the SMILES beside them. Groups on a side chain read outwards from the residue. *: point of attachment. C18 diacid = O=C(O)CCCCCCCCCCCCCCCCC(=O)*; γGlu = O=C(O)[C@H](CCC(=O)[*:2])N[*:1]; NMeY = CN[C@@H](Cc1ccc(O)cc1)C(=O)O; AEEA = NCCOCCOCC(=O)O; Aib = CC(C)(N)C(=O)O

Take `CC[C@H](C)[C@H](NC(=O)[C@H](CO)NC(=O)[C@H](Cc1ccc(O)cc1)NC(=O)[C@H](CC(=O)O)NC(=O)[C@H](CO)NC(=O)[C@@H](NC(=O)[C@H](Cc1ccccc1)NC(=O)[C@@H](NC(=O)CNC(=O)[C@H](CCC(=O)O)NC(=O)C(C)(C)NC(=O)[C@H](Cc1ccc(O)cc1)NC)[C@@H](C)O)[C@@H](C)CC)C(=O)N[C@@H](C)C(=O)N[C@@H](CC(C)C)C(=O)N[C@@H](CC(=O)O)C(=O)N[C@@H](CCCNC(=N)N)C(=O)NC(C)(C)C(=O)N[C@@H](CCCCNC(=O)COCCOCCNC(=O)COCCOCCNC(=O)CC[C@H](NC(=O)CC[C@H](NC(=O)CCCCCCCCCCCCCCCCC(=O)O)C(=O)O)C(=O)O)C(=O)N[C@@H](CCC(N)=O)C(=O)NC(C)(C)C(=O)N[C@@H](CC(N)=O)C(=O)N[C@@H](Cc1ccccc1)C(=O)N[C@H](C(=O)N[C@@H](CC(N)=O)C(=O)N[C@@H](Cc1c[nH]c2ccccc12)C(=O)N[C@@H](CC(C)C)C(=O)N[C@@H](CC(C)C)C(=O)N[C@@H](C)C(=O)N[C@@H](CCC(N)=O)C(=O)N[C@@H](CCCNC(=N)N)C(N)=O)C(C)C` [Compound 17] (H-[NMeY][Aib]EGTFISDYSIALDR[Aib]K([AEEA-AEEA-γGlu-γGlu-C18 diacid])Q[Aib]NFVNWLLAQR-NH2): the solubility reads like this: (pH 7.4) no less than 15 mg/mL; (pH 7.4, aqueous buffer) no less than 30 mg/mL.

On to `CC[C@H](C)[C@H](NC(=O)[C@H](CO)NC(=O)[C@H](Cc1ccc(O)cc1)NC(=O)[C@H](CC(=O)O)NC(=O)[C@H](CO)NC(=O)[C@@H](NC(=O)[C@H](Cc1ccccc1)NC(=O)[C@@H](NC(=O)CNC(=O)[C@H](CCC(=O)O)NC(=O)C(C)(C)NC(=O)[C@H](Cc1ccc(O)cc1)NC)[C@@H](C)O)[C@@H](C)CC)C(=O)N[C@@H](C)C(=O)N[C@@H](CC(C)C)C(=O)N[C@@H](CC(=O)O)C(=O)N[C@@H](CCCNC(=N)N)C(=O)NC(C)(C)C(=O)N[C@@H](Cc1c[nH]cn1)C(=O)N[C@@H](CCC(N)=O)C(=O)NC(C)(C)C(=O)N[C@@H](CCCCNC(=O)COCCOCCNC(=O)COCCOCCNC(=O)CC[C@H](NC(=O)CC[C@H](NC(=O)CCCCCCCCCCCCCCCCC(=O)O)C(=O)O)C(=O)O)C(=O)N[C@@H](Cc1ccccc1)C(=O)N[C@H](C(=O)N[C@@H](CC(N)=O)C(=O)N[C@@H](Cc1c[nH]c2ccccc12)C(=O)N[C@@H](CC(C)C)C(=O)N[C@@H](CC(C)C)C(=O)N[C@@H](C)C(=O)N[C@@H](CCC(N)=O)C(=O)N[C@@H](CCCNC(=N)N)C(N)=O)C(C)C` [Compound 18] (H-[NMeY][Aib]EGTFISDYSIALDR[Aib]HQ[Aib]K([AEEA-AEEA-γGlu-γGlu-C18 diacid])FVNWLLAQR-NH2), for which the solubility was no less than 15 mg/mL (pH 7.4) and no less than 30 mg/mL (pH 7.4, aqueous buffer).

Under “pH 7.4, aqueous buffer, pH 7.4 Phosphate Buffer - Solubility, 200 mM Phosphate buffer pH 7.4”, `CC[C@H](C)[C@H](NC(=O)[C@H](CO)NC(=O)[C@H](Cc1ccc(O)cc1)NC(=O)[C@H](CC(=O)O)NC(=O)[C@H](CO)NC(=O)[C@@H](NC(=O)[C@H](Cc1ccccc1)NC(=O)[C@@H](NC(=O)CNC(=O)[C@H](CCC(=O)O)NC(=O)C(C)(C)NC(=O)[C@H](Cc1ccc(O)cc1)NC)[C@@H](C)O)[C@@H](C)CC)C(=O)N[C@@H](C)C(=O)N[C@@H](CC(C)C)C(=O)N[C@@H](CC(=O)O)C(=O)N[C@@H](CCCNC(=N)N)C(=O)N[C@@H](CCCCNC(=O)CNC(=O)CNC(=O)CNC(=O)CNC(=O)CNC(=O)CC[C@H](NC(=O)CCCCCCCCCCCCCCCC(=O)O)C(=O)O)C(=O)N[C@@H](Cc1c[nH]cn1)C(=O)N[C@@H](CCC(N)=O)C(=O)NC(C)(C)C(=O)N[C@@H](CC(N)=O)C(=O)N[C@@H](Cc1ccccc1)C(=O)N[C@H](C(=O)N[C@@H](CC(N)=O)C(=O)N[C@@H](Cc1c[nH]c2ccccc12)C(=O)N[C@@H](CC(C)C)C(=O)N[C@@H](CC(C)C)C(=O)N[C@@H](C)C(=O)N[C@@H](CCC(N)=O)C(=O)N[C@@H](CCCNC(=N)N)C(=O)N1CCC[C@H]1C(=O)N[C@@H](CO)C(=O)N[C@@H](CO)C(=O)NCC(=O)N[C@@H](C)C(=O)N1CCC[C@H]1C(=O)N1CCC[C@H]1C(=O)N1CCC[C@H]1C(=O)N[C@@H](CO)C(=O)O)C(C)C` [Compound 20] came in with a solubility of no less than 15 mg/mL.
